# Laboratory results taken from ChEMBL document CHEMBL5442168, “ASAP - In vitro liver microsomal stability” (2024).
# Several values for one entry are separate records, joined by “and”; a condition that tells them apart may be missing. Identical values can stand only once.
# Experiments:
# [1] = (§1) Mouse liver microsomal stability of compound in microsomal protein, PBS buffer pH 7.4, NADPH, glucose-6-phosphate and glucose-6-phosphate dehydrogenase media. Aliquotes were taken at 5 time points and after stopping the reaction, supernatants were analyzed using HPLC coupled with a tandem mass spectrometer. The elimination constant, half-life, and intrinsic clearance are determined as results using linear regression analysis. The assay has been performed by Enamine biological services, Bienta Ltd.The protocol is publicly available: dx.doi.org/10.17504/protocols.io.5qpvokdb9l4o/v1; assay type: ADME, microsomes, Microsome; conditions: for half-life / microsomal CLint: liver microsomes; for CLint / Remaining / Remaining (without cofactor) / T1/2: microsomes
# [2] = as §1, with “Human” for “Mouse”; assay type: ADME, microsomes, Microsome; conditions: for Remaining / Remaining (without cofactor) / CLint / T1/2: microsomes; for half-life / microsomal CLint: liver microsomes
# Wherever Remaining (without cofactor) is given: time not given here.
# Wherever Remaining is given: time not given here.
smiles,measurement,setting,value
CCNC(=O)c1cc2c(N[C@@H](c3ccc4c(c3)S(=O)(=O)CCC4)C(C)C)ncnc2[nH]1,half-life,[1],19.5 min
same,microsomal CLint,[1],85 µL/min/mg
same,CLint,[1],54 µL/min/mg
same,Remaining,[1],21% and 43%
same,Remaining (without cofactor),[1],95% and 114%
same,T1/2,[1],30.8 min
same,Remaining,[2],15% and 0%
same,Remaining (without cofactor),[2],98% and 102%
Cn1ncc(-c2cc3c(N[C@@H](c4ccc5c(n4)OCCO5)C(C)(C)C)ncnc3[nH]2)c1C#N,half-life,[1],8 min
same,microsomal CLint,[1],209 µL/min/mg
same,CLint,[1],188 µL/min/mg and 226 µL/min/mg
same,Remaining,[1],4% and 5% and 2%
same,Remaining (without cofactor),[1],101% and 106% and 94%
same,T1/2,[1],8.9 min and 7.4 min
same,Remaining (without cofactor),[2],91% and 108% and 85%
COc1ccc([C@H](Cc2nnn[nH]2)NC(=O)c2ncnc3[nH]ccc23)cc1,half-life,[1],206 min
same,microsomal CLint,[1],7 µL/min/mg
same,Remaining,[1],115.387%
same,Remaining (without cofactor),[1],100.411%
same,half-life,[2],1090 min
same,microsomal CLint,[2],2 µL/min/mg
same,Remaining,[2],105.597%
same,Remaining (without cofactor),[2],84.68%
CCNC(=O)c1cc2c(N[C@@H](c3ccc4c(c3)OCCO4)C(C)C)ncnc2[nH]1,half-life,[1],19 min
same,microsomal CLint,[1],88 µL/min/mg
same,CLint,[1],72 µL/min/mg
same,Remaining,[1],24% and 29%
same,Remaining (without cofactor),[1],109% and 92%
same,T1/2,[1],23.2 min
same,Remaining (without cofactor),[2],103% and 97%
CNCc1cc(-c2cc3c(N[C@@H](c4ccc5c(c4)S(=O)(=O)CCC5)C(C)C)ncnc3[nH]2)co1,half-life,[1],32.2 min
same,microsomal CLint,[1],52 µL/min/mg
same,CLint,[1],54 µL/min/mg
same,Remaining,[1],41% and 35%
same,Remaining (without cofactor),[1],108% and 101%
same,T1/2,[1],30.9 min
same,CLint,[2],57 µL/min/mg and 133 µL/min/mg
same,Remaining (without cofactor),[2],110% and 95%
same,T1/2,[2],29.4 min and 12.6 min
C[C@H](C(=O)O)[C@@H](NC(=O)c1ncnc2[nH]ccc12)c1ccc(Br)cc1,half-life,[1],380 min
same,microsomal CLint,[1],4 µL/min/mg
same,Remaining,[1],111.226%
same,Remaining (without cofactor),[1],100.245%
same,half-life,[2],574 min
same,microsomal CLint,[2],3 µL/min/mg
same,Remaining,[2],92.211%
same,Remaining (without cofactor),[2],101.611%
CC(C)[C@H](Nc1ncnc2[nH]c(-c3cnn(C)c3C#N)cc12)c1ccc2c(c1)NC(=O)CO2,half-life,[1],20.7 min
same,microsomal CLint,[1],81 µL/min/mg
same,Remaining,[1],27%
same,Remaining (without cofactor),[1],96%
same,half-life,[2],14.6 min
same,microsomal CLint,[2],115 µL/min/mg
same,Remaining,[2],16%
same,Remaining (without cofactor),[2],101%
CNC(=O)Cn1cc(-c2cc3c(N[C@@H](c4ccc5c(c4)S(=O)(=O)CCC5)C(C)C)ncnc3[nH]2)cn1,half-life,[1],21.6 min
same,microsomal CLint,[1],77 µL/min/mg
same,CLint,[1],44 µL/min/mg
same,Remaining,[1],26% and 48%
same,Remaining (without cofactor),[1],103% and 90%
same,T1/2,[1],37.8 min
same,CLint,[2],94 µL/min/mg and 237 µL/min/mg
same,Remaining (without cofactor),[2],96% and 89%
same,T1/2,[2],17.7 min and 7 min
CC(C)[C@@H](Nc1ncnc2[nH]c(-c3cnn(C)c3C#N)cc12)c1ccc2c(n1)OCCO2,CLint,[1],169 µL/min/mg and 139 µL/min/mg and 371 µL/min/mg
same,Remaining,[1],6% and 10% and 1%
same,Remaining (without cofactor),[1],110% and 101% and 99%
same,T1/2,[1],9.9 min and 12 min and 4.5 min
same,Remaining (without cofactor),[2],104% and 98% and 93%
CC(C)[C@@H](Nc1ncnc2[nH]cc(C(=O)NC3CC3)c12)c1ccc2c(c1)S(=O)(=O)CCC2,Remaining,[1],2% and 0%
same,Remaining (without cofactor),[1],101% and 102%
same,Remaining (without cofactor),[2],90% and 111%
CC(C)[C@@H](Nc1ncnc2[nH]c(-c3cnn(C)c3)cc12)c1ccc2c(c1)S(=O)(=O)CCC2,half-life,[1],10.8 min
same,microsomal CLint,[1],155 µL/min/mg
same,CLint,[1],140 µL/min/mg
same,Remaining,[1],7% and 10%
same,Remaining (without cofactor),[1],102%
same,T1/2,[1],11.9 min
same,CLint,[2],141 µL/min/mg and 405 µL/min/mg
same,Remaining,[2],10% and 0%
same,Remaining (without cofactor),[2],102% and 105%
same,T1/2,[2],11.9 min and 4.1 min
CNC(=O)c1cc2c(N[C@@H](c3ccc4c(c3)S(=O)(=O)CCC4)C(C)C)ncnc2[nH]1,half-life,[1],36.5 min
same,microsomal CLint,[1],46 µL/min/mg
same,CLint,[1],23 µL/min/mg
same,Remaining,[1],47% and 69%
same,Remaining (without cofactor),[1],100% and 97%
same,T1/2,[1],71.6 min
same,Remaining,[2],25% and 0%
same,Remaining (without cofactor),[2],101% and 94%
CC(C)[C@@H](Nc1ncnc2[nH]c(-c3cnn(CC(=O)N(C)C)c3)cc12)c1ccc2c(c1)S(=O)(=O)CCC2,CLint,[1],68 µL/min/mg and 31 µL/min/mg
same,Remaining,[1],31% and 59%
same,Remaining (without cofactor),[1],92% and 102%
same,T1/2,[1],24.6 min and 53.8 min
same,CLint,[2],106 µL/min/mg and 297 µL/min/mg
same,Remaining (without cofactor),[2],92% and 99%
same,T1/2,[2],15.8 min and 5.6 min
CCNC(=O)c1cc2c(N[C@H](c3ccc4c(c3)OCCO4)C(C)C)ncnc2[nH]1,half-life,[1],34.6 min
same,microsomal CLint,[1],48 µL/min/mg
same,Remaining,[1],47%
same,Remaining (without cofactor),[1],94%
same,half-life,[2],24.8 min
same,microsomal CLint,[2],67 µL/min/mg
same,Remaining,[2],32%
same,Remaining (without cofactor),[2],100%
CC(C)[C@@H](Nc1ncnc2[nH]c(-c3cnn(CC(N)=O)c3)cc12)c1ccc2c(c1)OCCO2,half-life,[1],41.1 min
same,microsomal CLint,[1],41 µL/min/mg
same,CLint,[1],42 µL/min/mg
same,Remaining,[1],54% and 49%
same,Remaining (without cofactor),[1],87% and 98%
same,T1/2,[1],40 min
same,CLint,[2],99 µL/min/mg and 238 µL/min/mg
same,Remaining (without cofactor),[2],103% and 90%
same,T1/2,[2],16.9 min and 7 min
CC(C)[C@H](Nc1ncnc2[nH]c(-c3cnn(CC(=O)N(C)C)c3)cc12)c1ccc2c(c1)OCCO2,half-life,[1],48.1 min
same,microsomal CLint,[1],35 µL/min/mg
same,Remaining,[1],54%
same,Remaining (without cofactor),[1],102%
same,half-life,[2],3.3 min
same,microsomal CLint,[2],500 µL/min/mg
same,Remaining,[2],0%
same,Remaining (without cofactor),[2],115%
CNC(=O)c1cc2c(N[C@@H](c3ccc4c(c3)NC(=O)CO4)C(C)C)ncnc2[nH]1,half-life,[1],84.4 min
same,microsomal CLint,[1],20 µL/min/mg
same,CLint,[1],33 µL/min/mg
same,Remaining,[1],71% and 57%
same,Remaining (without cofactor),[1],103% and 99%
same,T1/2,[1],51.2 min
same,Remaining (without cofactor),[2],94% and 96%
CC(C)[C@H](Nc1ncnc2[nH]c(-c3cnn(CC(=O)N(C)C)c3)cc12)c1ccc2c(c1)S(=O)(=O)CCC2,half-life,[1],13.5 min
same,microsomal CLint,[1],124 µL/min/mg
same,Remaining,[1],13%
same,Remaining (without cofactor),[1],98%
same,half-life,[2],18.1 min
same,microsomal CLint,[2],92 µL/min/mg
same,Remaining,[2],22%
same,Remaining (without cofactor),[2],97%
